# Reference: US6358885B1, “Substituted phenylheterocyclic herbicides” (Mississippi State University, priority 1992, dated 2002)
# Tests used:
# Assay in all cases: Test B preemergence/postemergence greenhouse plant response rating 0 to 10
# barley = format: in vivo, Hordeum vulgare; conditions: for Plant response rating, Barley: 0 to 10 scale
# Method in brief: (§1)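 Planted seeds are treated preemergence with compound dissolved in a non-phytotoxic solvent, while postemergence applications go onto plants of two to eighteen cm. Plants stay in the greenhouse twelve to sixteen days and are then rated visually relative to controls.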
# barnyardgrass = format: in vivo, Echinochloa crus-galli; conditions: for Plant response rating, Barnyardgrass: 0 to 10 scale
# Method in brief: as §1
# bedstraw = format: in vivo, Galium aparine; conditions: for Plant response rating, Bedstraw: 0 to 10 scale
# Method in brief: as §1
# blackgrass = format: in vivo, Alopecurus myosuroides; conditions: for Plant response rating, Blackgrass: 0 to 10 scale
# Method in brief: as §1
# cheatgrass = format: in vivo, Bromus secalinus; conditions: for Plant response rating, Cheatgrass: 0 to 10 scale
# Method in brief: as §1
# chickweed = format: in vivo, Stellaria media; conditions: for Plant response rating, Chickweed: 0 to 10 scale
# Method in brief: as §1
# cocklebur = format: in vivo, Xanthium pensylvanicum; conditions: for Plant response rating, Cocklebur: 0 to 10 scale
# Method in brief: as §1
# corn = format: in vivo, Zea mays; conditions: for Plant response rating, Corn: 0 to 10 scale
# Method in brief: as §1
# cotton = format: in vivo, Gossypium hirsutum; conditions: for Plant response rating, Cotton: 0 to 10 scale
# Method in brief: as §1
# crabgrass = format: in vivo, Digitaria spp.; conditions: for Plant response rating, Crabgrass: 0 to 10 scale
# Method in brief: as §1
# giant foxtail = format: in vivo, Setaria faberii; conditions: for Plant response rating, Giant foxtail: 0 to 10 scale
# Method in brief: as §1
# lambsquarters = format: in vivo, Chenopodium album; conditions: for Plant response rating, Lambsquarter: 0 to 10 scale
# Method in brief: as §1
# morningglory = format: in vivo, Ipomoea hederacea; conditions: for Plant response rating, Morningglory: 0 to 10 scale
# Method in brief: as §1
# rape = format: in vivo, Brassica napus; conditions: for Plant response rating, Rape: 0 to 10 scale
# Method in brief: as §1
# rice = format: in vivo, Oryza sativa; conditions: for Plant response rating, Rice: 0 to 10 scale
# Method in brief: as §1
# sorghum = format: in vivo, Sorghum bicolor; conditions: for Plant response rating, Sorghum: 0 to 10 scale
# Method in brief: as §1
# soybean = format: in vivo, Glycine max; conditions: for Plant response rating, Soybean: 0 to 10 scale
# Method in brief: as §1
# sugar beet = format: in vivo, Beta vulgaris; conditions: for Plant response rating, Sugar beet: 0 to 10 scale
# Method in brief: as §1
# velvetleaf = format: in vivo, Abutilon theophrasti; conditions: for Plant response rating, Velvetleaf: 0 to 10 scale
# Method in brief: as §1
# wheat = format: in vivo, Triticum aestivum; conditions: for Plant response rating, Wheat: 0 to 10 scale
# Method in brief: as §1
# wild buckwheat = format: in vivo, Polygonum convolvulus; conditions: for Plant response rating, Wild buckwheat: 0 to 10 scale
# Method in brief: as §1
# wild oat = format: in vivo, Avena fatua; conditions: for Plant response rating, Wild oat: 0 to 10 scale
# Method in brief: as §1
# purple nutsedge = format: in vivo, Cyperus rotundus; conditions: for Plant response rating, Nutsedge: 0 to 10 scale
# Method in brief: as §1
smiles,measurement,setting,value
CC(C)OC(=O)COc1cc(-c2nn3c(c2Br)CCCC3)c(F)cc1Cl [Compound 64],"Plant response rating, Barley","barley; POSTEMERGENCE, Rate 50 g/ha",2
same,"Plant response rating, Barley","barley; PREEMERGENCE, Rate 50 g/ha",0
same,"Plant response rating (0 to 10 scale), Barley","barley; PREEMERGENCE, Rate 200 g/ha",0
same,"Plant response rating, Barley","barley; Rate 200 g/ha, POSTEMERGENCE",3
same,"Plant response rating, Barnyardgrass","barnyardgrass; POSTEMERGENCE, Rate 50 g/ha",5
same,"Plant response rating, Barnyardgrass","barnyardgrass; PREEMERGENCE, Rate 50 g/ha",0
same,"Plant response rating (0 to 10 scale), Barnyardgrass","barnyardgrass; PREEMERGENCE, Rate 200 g/ha",1
same,"Plant response rating, Barnyardgrass","barnyardgrass; Rate 200 g/ha, POSTEMERGENCE",7
same,"Plant response rating, Bedstraw","bedstraw; POSTEMERGENCE, Rate 50 g/ha",10
same,"Plant response rating, Bedstraw","bedstraw; PREEMERGENCE, Rate 50 g/ha",0
same,"Plant response rating (0 to 10 scale), Bedstraw","bedstraw; PREEMERGENCE, Rate 200 g/ha",1
same,"Plant response rating, Bedstraw","bedstraw; Rate 200 g/ha, POSTEMERGENCE",10
same,"Plant response rating, Blackgrass","blackgrass; POSTEMERGENCE, Rate 50 g/ha",2
same,"Plant response rating, Blackgrass","blackgrass; PREEMERGENCE, Rate 50 g/ha",1
same,"Plant response rating (0 to 10 scale), Blackgrass","blackgrass; PREEMERGENCE, Rate 200 g/ha",2
same,"Plant response rating, Blackgrass","blackgrass; Rate 200 g/ha, POSTEMERGENCE",3
same,"Plant response rating, Cheatgrass","cheatgrass; POSTEMERGENCE, Rate 50 g/ha",2
same,"Plant response rating, Cheatgrass","cheatgrass; PREEMERGENCE, Rate 50 g/ha",2
same,"Plant response rating (0 to 10 scale), Cheatgrass","cheatgrass; PREEMERGENCE, Rate 200 g/ha",2
same,"Plant response rating, Cheatgrass","cheatgrass; Rate 200 g/ha, POSTEMERGENCE",3
same,"Plant response rating, Chickweed","chickweed; POSTEMERGENCE, Rate 50 g/ha",2
same,"Plant response rating, Chickweed","chickweed; PREEMERGENCE, Rate 50 g/ha",0
same,"Plant response rating (0 to 10 scale), Chickweed","chickweed; PREEMERGENCE, Rate 200 g/ha",0
same,"Plant response rating, Chickweed","chickweed; Rate 200 g/ha, POSTEMERGENCE",5
same,"Plant response rating, Cocklebur","cocklebur; POSTEMERGENCE, Rate 50 g/ha",10
same,"Plant response rating, Cocklebur","cocklebur; PREEMERGENCE, Rate 50 g/ha",0
same,"Plant response rating (0 to 10 scale), Cocklebur","cocklebur; PREEMERGENCE, Rate 200 g/ha",2
same,"Plant response rating, Cocklebur","cocklebur; Rate 200 g/ha, POSTEMERGENCE",10
same,"Plant response rating, Corn","corn; POSTEMERGENCE, Rate 50 g/ha",5
same,"Plant response rating, Corn","corn; PREEMERGENCE, Rate 50 g/ha",0
same,"Plant response rating (0 to 10 scale), Corn","corn; PREEMERGENCE, Rate 200 g/ha",0
same,"Plant response rating, Corn","corn; Rate 200 g/ha, POSTEMERGENCE",3
same,"Plant response rating, Cotton","cotton; POSTEMERGENCE, Rate 50 g/ha",10
same,"Plant response rating, Cotton","cotton; PREEMERGENCE, Rate 50 g/ha",0
same,"Plant response rating (0 to 10 scale), Cotton","cotton; PREEMERGENCE, Rate 200 g/ha",0
same,"Plant response rating, Cotton","cotton; Rate 200 g/ha, POSTEMERGENCE",10
same,"Plant response rating, Crabgrass","crabgrass; POSTEMERGENCE, Rate 50 g/ha",3
same,"Plant response rating, Crabgrass","crabgrass; PREEMERGENCE, Rate 50 g/ha",0
same,"Plant response rating (0 to 10 scale), Crabgrass","crabgrass; PREEMERGENCE, Rate 200 g/ha",0
same,"Plant response rating, Crabgrass","crabgrass; Rate 200 g/ha, POSTEMERGENCE",5
same,"Plant response rating, Giant foxtail","giant foxtail; POSTEMERGENCE, Rate 50 g/ha",3
same,"Plant response rating, Giant foxtail","giant foxtail; PREEMERGENCE, Rate 50 g/ha",0
same,"Plant response rating (0 to 10 scale), Giant foxtail","giant foxtail; PREEMERGENCE, Rate 200 g/ha",0
same,"Plant response rating, Giant foxtail","giant foxtail; Rate 200 g/ha, POSTEMERGENCE",3
same,"Plant response rating, Lambsquarter","lambsquarters; POSTEMERGENCE, Rate 50 g/ha",9
same,"Plant response rating, Lambsquarter","lambsquarters; PREEMERGENCE, Rate 50 g/ha",10
same,"Plant response rating (0 to 10 scale), Lambsquarter","lambsquarters; PREEMERGENCE, Rate 200 g/ha",10
same,"Plant response rating, Lambsquarter","lambsquarters; Rate 200 g/ha, POSTEMERGENCE",10
same,"Plant response rating, Morningglory","morningglory; POSTEMERGENCE, Rate 50 g/ha",9
same,"Plant response rating, Morningglory","morningglory; PREEMERGENCE, Rate 50 g/ha",0
same,"Plant response rating (0 to 10 scale), Morningglory","morningglory; PREEMERGENCE, Rate 200 g/ha",8
same,"Plant response rating, Morningglory","morningglory; Rate 200 g/ha, POSTEMERGENCE",10
same,"Plant response rating, Rape","rape; POSTEMERGENCE, Rate 50 g/ha",7
same,"Plant response rating, Rape","rape; PREEMERGENCE, Rate 50 g/ha",0
same,"Plant response rating (0 to 10 scale), Rape","rape; PREEMERGENCE, Rate 200 g/ha",0
same,"Plant response rating, Rape","rape; Rate 200 g/ha, POSTEMERGENCE",10
same,"Plant response rating, Rice","rice; POSTEMERGENCE, Rate 50 g/ha",4
same,"Plant response rating, Rice","rice; PREEMERGENCE, Rate 50 g/ha",0
same,"Plant response rating (0 to 10 scale), Rice","rice; PREEMERGENCE, Rate 200 g/ha",2
same,"Plant response rating, Rice","rice; Rate 200 g/ha, POSTEMERGENCE",5
same,"Plant response rating, Sorghum","sorghum; POSTEMERGENCE, Rate 50 g/ha",4
same,"Plant response rating, Sorghum","sorghum; PREEMERGENCE, Rate 50 g/ha",0
same,"Plant response rating (0 to 10 scale), Sorghum","sorghum; PREEMERGENCE, Rate 200 g/ha",0
same,"Plant response rating, Sorghum","sorghum; Rate 200 g/ha, POSTEMERGENCE",4
same,"Plant response rating, Soybean","soybean; POSTEMERGENCE, Rate 50 g/ha",6
same,"Plant response rating, Soybean","soybean; PREEMERGENCE, Rate 50 g/ha",0
same,"Plant response rating (0 to 10 scale), Soybean","soybean; PREEMERGENCE, Rate 200 g/ha",0
same,"Plant response rating, Soybean","soybean; Rate 200 g/ha, POSTEMERGENCE",5
same,"Plant response rating, Sugar beet","sugar beet; POSTEMERGENCE, Rate 50 g/ha",10
same,"Plant response rating, Sugar beet","sugar beet; PREEMERGENCE, Rate 50 g/ha",9
same,"Plant response rating (0 to 10 scale), Sugar beet","sugar beet; PREEMERGENCE, Rate 200 g/ha",10
same,"Plant response rating, Sugar beet","sugar beet; Rate 200 g/ha, POSTEMERGENCE",10
same,"Plant response rating, Velvetleaf","velvetleaf; POSTEMERGENCE, Rate 50 g/ha",10
same,"Plant response rating, Velvetleaf","velvetleaf; PREEMERGENCE, Rate 50 g/ha",3
same,"Plant response rating (0 to 10 scale), Velvetleaf","velvetleaf; PREEMERGENCE, Rate 200 g/ha",6
same,"Plant response rating, Velvetleaf","velvetleaf; Rate 200 g/ha, POSTEMERGENCE",10
same,"Plant response rating, Wheat","wheat; POSTEMERGENCE, Rate 50 g/ha",3
same,"Plant response rating, Wheat","wheat; PREEMERGENCE, Rate 50 g/ha",0
same,"Plant response rating (0 to 10 scale), Wheat","wheat; PREEMERGENCE, Rate 200 g/ha",0
same,"Plant response rating, Wheat","wheat; Rate 200 g/ha, POSTEMERGENCE",2
same,"Plant response rating, Wild buckwheat","wild buckwheat; POSTEMERGENCE, Rate 50 g/ha",10
same,"Plant response rating, Wild buckwheat","wild buckwheat; PREEMERGENCE, Rate 50 g/ha",5
same,"Plant response rating (0 to 10 scale), Wild buckwheat","wild buckwheat; PREEMERGENCE, Rate 200 g/ha",10
same,"Plant response rating, Wild buckwheat","wild buckwheat; Rate 200 g/ha, POSTEMERGENCE",10
same,"Plant response rating, Wild oat","wild oat; POSTEMERGENCE, Rate 50 g/ha",3
same,"Plant response rating, Wild oat","wild oat; PREEMERGENCE, Rate 50 g/ha",0
same,"Plant response rating (0 to 10 scale), Wild oat","wild oat; PREEMERGENCE, Rate 200 g/ha",0
same,"Plant response rating, Wild oat","wild oat; Rate 200 g/ha, POSTEMERGENCE",3
same,"Plant response rating, Nutsedge","purple nutsedge; POSTEMERGENCE, Rate 50 g/ha",2
same,"Plant response rating, Nutsedge","purple nutsedge; PREEMERGENCE, Rate 50 g/ha",0
same,"Plant response rating (0 to 10 scale), Nutsedge","purple nutsedge; PREEMERGENCE, Rate 200 g/ha",0
same,"Plant response rating, Nutsedge","purple nutsedge; Rate 200 g/ha, POSTEMERGENCE",2
